EPA's ToxValDB 9.5 (doi:10.2903/j.efsa.2018.5151)
In brackets after ≈: the same amount, converted by molar mass.

Experiments:
[1] = tested on: Anas platyrhynchos; details: acute; oral; unspecified; mortality
[2] = tested on: Apis mellifera; details: acute, mortality
[3] = tested on: Bibionidae; details: chronic/long-term; duration: 28 days
[4] = tested on: Colinus virginianus; details: reproduction developmental
[5] = tested on: Daphnia magna; details: chronic/long-term; duration: 21 days
[6] = tested on: Folsomia candida; details: chronic/long-term; duration: 28 days; reproduction
[7] = tested on: Oncorhynchus mykiss
[8] = tested on: Rattus norvegicus; details: acute; oral; mortality
[9] = tested on: Aphidius rhopalosiphi; test: LR50; higher = less toxic

COC(=O)Nc1cccc(OC(=O)Nc2cccc(C)c2)c1 [Phenmedipham] showed an LD50 [1] of over 2500 mg/kg-day, an LD50 ([2]; dermal) of over 100 µg/piece and an LD50 ([2]; oral, unspecified) of over 105 µg/piece. For the same compound, the NOEC [3] was at least 6.86 mg/L, the NOAEL [4] was 121 mg/kg-day and the NOEC [5] was 0.005 mg/L. The NOEC [6] was 500 mg/kg, the LC50 ([7]; acute, duration: 96 hours, mortality) was 1.84 µg/mL (≈ 6.13 µM) and the NOEC ([7]; chronic/long-term, duration: 92 days, growth) was 0.041 mg/L. The LD50 [8] was over 5000 mg/kg-day, the LR50 ([9]; acute, mortality) was over 294 g/ha and the LR50 ([9]; chronic/long-term, duration: 14 days, no effects) was over 960 g/ha.
